Measured values from PubChem BioAssay AID248 (DTP/NCI, 2004).
Where “and” joins values, the source holds several entries; their conditions need not be identical. Identical values can stand only once. Toxic doses and inconclusive results are not listed. Cut-off read from the data, not from the text of the source: active = T/C of 150% or more; inactive = T/C below 125%.

Tested on: L1210 leukemia ip in BDF1 mice, survival T/C
Experiment: NCI In Vivo Anticancer Drug Screen. Data for tumor model L1210 Leukemia (intraperitoneal) in B6D2F1 (BDF1) mice
Conditions: endpoint: mean survival time, higher = longer survival
How it was run: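 Tumor cells were implanted, animals were treated, and survival was followed. The result divides the treated measurement by the vehicle-control measurement.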

[1] = dose: 100.0 mg/kg/injection, schedule: Q01DX009 (ip), vehicle: Klucel (hydroxypropylcellulose) (HPC)
[2] = dose: 100.0 mg/kg/injection, schedule: Q04DX003 (ip), vehicle: Klucel (hydroxypropylcellulose) (HPC)
[3] = dose: 200.0 mg/kg/injection, schedule: Q04DX003 (ip), vehicle: Klucel (hydroxypropylcellulose) (HPC)

Measured: T/C

CN=C(N)c1ccc(NC(=O)c2ccc(C(=O)Nc3ccc(C(N)=NC)cc3)cc2)cc1
inactive: dose: 1.9 mg/kg/injection, schedule: Q01DX Z (ip), vehicle: methylcellulose (MC) 102 % of control | dose: 2.0 mg/kg/injection, schedule: Q01DX006 (iv), vehicle: saline 104 % of control | dose: 2.0 mg/kg/injection, schedule: Q01DX Z (sc), vehicle: saline 101 % of control | dose: 2.0 mg/kg/injection, schedule: Q02DX004 (im), vehicle: saline 103 % of control | dose: 3.75 mg/kg/injection, schedule: Q01DX Z (ip), vehicle: methylcellulose (MC) 124 % of control | dose: 4.0 mg/kg/injection, schedule: Q01DX006 (iv), vehicle: saline 103 % of control | dose: 4.0 mg/kg/injection, schedule: Q01DX Z (sc), vehicle: saline 97 % of control | dose: 4.0 mg/kg/injection, schedule: Q02DX004 (im), vehicle: saline 103 % of control | dose: 8.0 mg/kg/injection, schedule: Q01DX006 (iv), vehicle: saline 106 % of control | dose: 8.0 mg/kg/injection, schedule: Q01DX010 (oral), vehicle: saline 106 % of control | dose: 8.0 mg/kg/injection, schedule: Q01DX Z (sc), vehicle: saline 94 % of control | dose: 8.0 mg/kg/injection, schedule: Q02DX004 (im), vehicle: saline 108 % of control | dose: 16.0 mg/kg/injection, schedule: Q01DX010 (oral), vehicle: saline 97 % of control | dose: 16.0 mg/kg/injection, schedule: Q01DX Z (sc), vehicle: saline 98 % of control | dose: 16.0 mg/kg/injection, schedule: Q02DX004 (im), vehicle: saline 108 % of control | dose: 32.0 mg/kg/injection, schedule: Q01DX010 (oral), vehicle: saline 97 % of control | dose: 42.4 mg/kg/injection, schedule: Q01DX007 (oral), vehicle: carboxymethylcellulose (CMC) 100 % of control | dose: 64.0 mg/kg/injection, schedule: Q01DX007 (oral), vehicle: carboxymethylcellulose (CMC) 105 % of control | dose: 64.0 mg/kg/injection, schedule: Q01DX010 (oral), vehicle: saline 103 % of control | dose: 96.0 mg/kg/injection, schedule: Q01DX007 (oral), vehicle: carboxymethylcellulose (CMC) 103 % of control | dose: 120.0 mg/kg/injection, schedule: Q01DX Z (ip), vehicle: methylcellulose (MC) 108 % of control | dose: 144.0 mg/kg/injection, schedule: Q01DX007 (oral), vehicle: carboxymethylcellulose (CMC) 108 % of control | dose: 150.0 mg/kg/injection, schedule: Q01DX Z (oral), vehicle: saline 100 % of control | dose: 300.0 mg/kg/injection, schedule: Q01DX Z (oral), vehicle: saline 93 % of control | dose: 600.0 mg/kg/injection, schedule: Q01DX Z (oral), vehicle: saline 115 % of control
active: dose: 5.5 mg/kg/injection, schedule: Q01DX Z (ip), vehicle: methylcellulose (MC) 177 % of control | dose: 15.0 mg/kg/injection, schedule: Q01DX Z (ip), vehicle: methylcellulose (MC) 150 % of control and 156 % of control | dose: 30.0 mg/kg/injection, schedule: Q01DX Z (ip), vehicle: methylcellulose (MC) 171 % of control and 173 % of control | dose: 60.0 mg/kg/injection, schedule: Q01DX Z (ip), vehicle: methylcellulose (MC) 174 % of control

CC(C)C(CCN1CCCC1)(C(N)=O)c1cccc2ccccc12 (centres undefined)
inactive: dose: 50.0 mg/kg/injection, schedule: Q01DX009 (ip), vehicle: Klucel (hydroxypropylcellulose) (HPC) 112 % of control | [1] 105 % of control | [2] 98 % of control | dose: 200.0 mg/kg/injection, schedule: Q01DX009 (ip), vehicle: Klucel (hydroxypropylcellulose) (HPC) 112 % of control | [3] 95 % of control

CCCCCCCC(=O)N(C)OC
inactive: [1] 97 % of control | [2] 89 % of control | [3] 94 % of control | dose: 400.0 mg/kg/injection, schedule: Q01DX009 (ip), vehicle: Klucel (hydroxypropylcellulose) (HPC) 100 % of control | dose: 400.0 mg/kg/injection, schedule: Q04DX003 (ip), vehicle: Klucel (hydroxypropylcellulose) (HPC) 92 % of control
